Measured values taken from DBAASP.
Values after ≈ are worked out from the molar mass of the structure shown.

Tests used:
Experiment in all cases: ≥ marks a high value that may be exact or a test limit, other limits are often not marked, values filed in µg/mL are converted to µM
[1] = test system: Pseudomonas aeruginosa ATCC 27853
[2] = test system: Escherichia coli ATCC 25922
Staphylococcus aureus = test system: Staphylococcus aureus
Escherichia coli = test system: Escherichia coli
[3] = test system: Staphylococcus aureus ATCC 25923

Structure (SMILES)	MIC [1] [µM]	MIC [2] [µM]	MIC (Staphylococcus aureus) [µM]	MIC (Escherichia coli) [µM]	MIC [3] [µM]
CC[C@H](C)[C@H](NC(=O)[C@H](Cc1ccc(O)cc1)NC(=O)[C@H](CCC(N)=O)NC(=O)[C@H](CC(C)C)NC(=O)[C@H](C)N)C(=O)N[C@@H](CCCCN)C(=O)N[C@@H](CC(C)C)C(=O)N[C@@H](CC(C)C)C(=O)N[C@@H](CCCCN)C(=O)N[C@@H](CCC(=O)O)C(N)=O [ALQYIKLLKE]	> 100	> 100			
CC[C@H](C)[C@H](NC(=O)[C@H](CCCCN)NC(=O)[C@H](CC(C)C)NC(=O)[C@H](C)NC(=O)[C@H](C)NC(=O)[C@H](CCCCN)NC(=O)[C@H](CC(C)C)NC(=O)[C@H](C)NC(=O)[C@H](CCCCN)NC(=O)CNC(=O)[C@H](CC(C)C)NC(=O)[C@H](Cc1ccccc1)NC(=O)[C@H](CO)NC(=O)CNC(=O)[C@H](Cc1ccccc1)NC(=O)CN)C(=O)NCC(=O)N[C@@H](C)C(=O)N[C@@H](CC(N)=O)C(=O)N[C@H](C(=O)N[C@@H](CC(C)C)C(=O)NCC(=O)NCC(=O)N[C@@H](C)C(=O)N1CCC[C@H]1C(=O)N[C@@H](CCC(=O)O)C(=O)N[C@@H](CCC(N)=O)C(=O)O)C(C)C [GFGSFLGKALKAALKIGANVLGGAPEQ]			6 (≈ 15.7 µg/mL)	25 (≈ 65.4 µg/mL)	
CC[C@H](C)[C@H](NC(=O)CN)C(=O)NCC(=O)N[C@@H](CO)C(=O)N[C@@H](C)C(=O)N[C@@H](CC(C)C)C(=O)N[C@@H](C)C(=O)N[C@@H](CCCCN)C(=O)N[C@@H](C)C(=O)N[C@@H](C)C(=O)N[C@@H](CCCCN)C(=O)N[C@@H](CC(C)C)C(=O)N[C@H](C(=O)N[C@@H](C)C(=O)NCC(=O)N[C@H](C(=O)N[C@H](C(N)=O)C(C)C)[C@@H](C)CC)C(C)C [GIGSALAKAAKLVAGIV]			12.5 (≈ 19.2 µg/mL)	50 (≈ 76.9 µg/mL)	
CC(C)C[C@H](NC(=O)CN)C(=O)N[C@@H](Cc1ccccc1)C(=O)N[C@@H](CC(=O)O)C(=O)N[C@H](C(=O)N[C@H](C(=O)N[C@@H](CCCCN)C(=O)NCC(=O)N[C@H](C(=O)N[C@@H](CC(C)C)C(=O)N[C@@H](CCCCN)C(=O)NCC(=O)N[C@@H](C)C(=O)NCC(=O)N[C@@H](CCCCN)C(=O)N[C@@H](CC(N)=O)C(=O)N[C@H](C(=O)N[C@@H](C)C(=O)NCC(=O)N[C@@H](CO)C(=O)N[C@@H](CC(C)C)C(=O)N[C@@H](CC(C)C)C(=O)N[C@@H](CCC(=O)O)C(=O)N[C@@H](CCC(N)=O)C(=O)N[C@@H](CC(C)C)C(=O)N[C@@H](CCCCN)C(=O)N[C@H]1CSSC[C@@H](C(=O)O)NC(=O)CNC(=O)CNC(=O)[C@H](CO)NC(=O)[C@H](CC(C)C)NC(=O)[C@H](CCCCN)NC1=O)C(C)C)C(C)C)C(C)C)C(C)C [GLFDVVKGVLKGAGKNVAGSLLEQLKCKLSGGC]		30 (≈ 98.6 µg/mL)			30 (≈ 98.6 µg/mL)
CC[C@H](C)[C@H](NC(=O)[C@H](CCC(N)=O)NC(=O)[C@H](CCCCN)NC(=O)[C@@H](NC(=O)[C@H](CC(C)C)NC(=O)[C@H](CCC(N)=O)NC(=O)[C@H](C)NC(=O)[C@H](Cc1ccccc1)NC(=O)[C@@H](NC(=O)[C@H](CC(=O)O)NC(=O)[C@H](CCCCN)NC(=O)CNC(=O)[C@@H](NC(=O)CNC(=O)[C@@H](NC(=O)[C@@H](NC(=O)[C@H](Cc1ccccc1)NC(=O)[C@H](CC(=O)O)NC(=O)[C@H](CC(C)C)NC(=O)[C@H](CC(C)C)NC(=O)CN)C(C)C)[C@@H](C)O)C(C)C)[C@@H](C)CC)[C@@H](C)CC)C(N)=O [GLLDFVTGVGKDIFAQLIKQI]		64 (≈ 146 µg/mL)			64 (≈ 146 µg/mL)
CC[C@H](C)[C@H](NC(=O)[C@@H](NC(=O)[C@H](CCCCN)NC(=O)[C@H](CC(C)C)NC(=O)[C@H](CC(C)C)NC(=O)CN)C(C)C)C(=O)N[C@@H](CCCCN)C(=O)N[C@H](C(=O)N[C@@H](CC(C)C)C(=O)N[C@@H](CC(C)C)C(N)=O)C(C)C [GLLKVIKVLL]		25.6 (≈ 28 µg/mL)			12.8 (≈ 14 µg/mL)
CC[C@H](C)[C@H](NC(=O)[C@@H](NC(=O)[C@H](CC(N)=O)NC(=O)[C@H](CC(C)C)NC(=O)[C@H](CC(C)C)NC(=O)CN)C(C)C)C(=O)N[C@@H](CCCCN)C(=O)N[C@@H](CC(=O)O)C(=O)N[C@H](C(=O)N[C@@H](C)C(=O)N[C@@H](CCC(N)=O)C(=O)N[C@@H](CC(N)=O)C(=O)N[C@@H](CC(C)C)C(=O)N[C@@H](Cc1ccccc1)C(=O)N[C@@H](C)C(=O)N[C@@H](C)C(=O)N[C@@H](C)C(=O)N[C@@H](CC(C)C)C(=O)N[C@@H](CC(=O)O)C(=O)N[C@@H](CCCCN)C(=O)N[C@@H](CC(C)C)C(=O)N[C@@H](CCCCN)C(=O)N[C@H]1CSSC[C@@H](C(=O)N[C@@H](CC(N)=O)C(=O)O)NC(=O)[C@H](CCCCN)NC(=O)[C@H]([C@@H](C)O)NC(=O)[C@H](C(C)C)NC(=O)[C@H](CCCCN)NC1=O)[C@@H](C)O [GLLNVIKDTAQNLFAAALDKLKCKVTKCN]		80 (≈ 251 µg/mL)			> 160
CC(C)[C@H](NC(=O)[C@H](Cc1ccc(O)cc1)NC(=O)[C@H](CO)NC(=O)[C@H](CCCCN)NC(=O)[C@@H](N)CCCCN)C(=O)N[C@@H](CCCN=C(N)N)C(=O)N[C@@H](CCCN=C(N)N)C(=O)N[C@@H](Cc1c[nH]c2ccccc12)C(=O)N[C@@H](CCCN=C(N)N)C(=O)N[C@@H](CO)C(N)=O [KKSYVRRWRS]	> 100	> 100			> 100
CC(C)C[C@H](NC(=O)[C@H](CCCCN)NC(=O)[C@H](CCCCN)NC(=O)[C@H](C)NC(=O)[C@H](CC(C)C)NC(=O)[C@H](CCCCN)NC(=O)[C@H](C)NC(=O)[C@H](CC(C)C)NC(=O)[C@H](CCCCN)NC(=O)[C@H](CCCCN)NC(=O)[C@H](C)NC(=O)[C@H](CC(C)C)NC(=O)[C@H](CCCCN)NC(=O)[C@H](C)NC(=O)[C@H](CC(C)C)NC(=O)[C@H](CCCCN)NC(=O)[C@H](CCCCN)NC(=O)[C@H](C)NC(=O)[C@H](CC(C)C)NC(=O)[C@@H](N)CCCCN)C(=O)N[C@@H](C)C(N)=O [KLAKKLAKLAKKLAKLAKKLA]	4 (≈ 9.1 µg/mL)	4 (≈ 9.1 µg/mL)			4 (≈ 9.1 µg/mL)
CC[C@H](C)[C@H](NC(=O)[C@@H](NC(=O)[C@H](CCCCN)NC(=O)[C@H](CC(C)C)NC(=O)[C@H](CC(C)C)NC(=O)[C@@H](N)CCCCN)C(C)C)C(=O)N[C@@H](CCCCN)C(=O)N[C@@H](CCCCN)C(=O)N[C@@H](CC(C)C)C(=O)N[C@@H](CC(C)C)C(N)=O [KLLKVIKKLL]		5.02 (≈ 6 µg/mL)			7.53 (≈ 8.99 µg/mL)
CC[C@H](C)[C@H](NC(=O)CNC(=O)[C@H](CCC(N)=O)NC(=O)CNC(=O)[C@H](Cc1c[nH]c2ccccc12)NC(=O)[C@H](CCCCN)NC(=O)[C@H](CCC(=O)O)NC(=O)[C@@H](NC(=O)[C@H](CCCCN)NC(=O)[C@H](CCCCN)NC(=O)[C@H](Cc1c[nH]c2ccccc12)NC(=O)[C@H](CC(C)C)NC(=O)[C@H](CCCCN)NC(=O)[C@H](Cc1c[nH]c2ccccc12)NC(=O)[C@@H](N)CCCCN)[C@@H](C)CC)C(=O)NCC(=O)N[C@@H](C)C(=O)N[C@H](C(=O)N[C@@H](CC(C)C)C(=O)N[C@@H](CCCCN)C(=O)N[C@@H](Cc1c[nH]c2ccccc12)C(=O)N[C@@H](CC(C)C)C(=O)N[C@H](C(=O)N[C@H](C(=O)N[C@@H](Cc1c[nH]c2ccccc12)C(=O)N[C@@H](CC(C)C)C(=O)O)[C@@H](C)O)[C@@H](C)O)C(C)C [KWKLWKKIEKWGQGIGAVLKWLTTWL]	32 (≈ 102 µg/mL)				
CC[C@H](C)[C@H](NC(=O)[C@H](CCCN=C(N)N)NC(=O)[C@H](CCCCN)NC(=O)[C@@H](N)CC(C)C)C(=O)N[C@@H](CCCCN)C(=O)N[C@H](C(=O)N[C@@H](CC(C)C)C(=O)N[C@@H](CC(C)C)C(N)=O)[C@@H](C)O [LKRIKTLL]		> 31.5			> 31.5
CC(C)C[C@H](NC(=O)[C@H](C)NC(=O)[C@@H](N)CO)C(=O)N[C@H](C(=O)NCC(=O)N[C@H]1CSSC[C@@H](C(=O)N[C@@H](Cc2ccccc2)C(=O)NCC(=O)N[C@@H](CCCN=C(N)N)C(=O)NCC(=O)O)NC(=O)[C@@H]2CCCN2C(=O)[C@H](CCCCN)NC(=O)[C@@H]2CCCN2C(=O)[C@@H]2CCCN2C(=O)[C@H](Cc2c[nH]c3ccccc23)NC(=O)[C@H](CO)NC(=O)[C@H](CCCCN)NC(=O)[C@H]([C@@H](C)O)NC(=O)[C@H](Cc2c[nH]c3ccccc23)NC1=O)C(C)C [SALVGCWTKSWPPKPCFGRG]					23 (≈ 50 µg/mL)
CC(C)C[C@H](NC(=O)[C@H](C)NC(=O)[C@@H](N)CO)C(=O)N[C@H](C(=O)NCC(=O)N[C@H]1CSSC[C@@H](C(=O)N[C@@H](Cc2ccccc2)C(=O)NCC(=O)N[C@@H](CCCN=C(N)N)C(=O)O)NC(=O)[C@@H]2CCCN2C(=O)[C@H](CCCCN)NC(=O)[C@@H]2CCCN2C(=O)[C@@H]2CCCN2C(=O)[C@H](Cc2c[nH]c3ccccc23)NC(=O)[C@H](CO)NC(=O)[C@H](CCCCN)NC(=O)[C@H]([C@@H](C)O)NC(=O)[C@H](Cc2c[nH]c3ccccc23)NC1=O)C(C)C [SALVGCWTKSWPPKPCFGR]		23.6 (≈ 50 µg/mL)			11.8 (≈ 25 µg/mL)
CC[C@H](C)[C@H](NC(=O)[C@@H](N)C(C)C)C(=O)N[C@@H](C)C(=O)N[C@@H](Cc1ccccc1)C(=O)N[C@@H](C)C(=O)N[C@@H](CCCCN)C(=O)N[C@H](C(=O)N[C@@H](CCCCN)C(=O)N[C@@H](CCC(=O)O)C(=O)N[C@@H](C)C(=O)N[C@@H](CCCCN)C(=O)N[C@@H](C)C(=O)N[C@@H](CCCCN)C(=O)N[C@@H](CC(C)C)C(=O)N[C@@H](CCCCN)C(=O)NCC(=O)N[C@@H](CCC(N)=O)C(=O)N[C@@H](C)C(=O)N[C@@H](CCCCN)C(=O)NCC(=O)O)[C@@H](C)O [VIAFAKTKEAKAKLKGQAKG]				> 123	
CC(C)C[C@H](NC(=O)[C@H](Cc1ccccc1)NC(=O)[C@@H]1CCCN1C(=O)[C@H](Cc1c[nH]c2ccccc12)NC(=O)[C@H](C)NC(=O)[C@H](Cc1c[nH]c2ccccc12)NC(=O)[C@@H]1CCCN1C(=O)[C@H](Cc1ccccc1)NC(=O)[C@H](CCCN=C(N)N)NC(=O)[C@H](CCCN=C(N)N)NC(=O)[C@@H](N)C(C)C)C(=O)N[C@@H](CCCN=C(N)N)C(=O)N[C@@H](CCCN=C(N)N)C(N)=O [VRRFPWAWPFLRR]		16 (≈ 28.6 µg/mL)			
CC(C)[C@H](NC(=O)[C@H](Cc1ccc(O)cc1)NC(=O)[C@H](CO)NC(=O)[C@H](CCCCN)NC(=O)[C@@H](N)Cc1c[nH]c2ccccc12)C(=O)N[C@@H](CCCN=C(N)N)C(=O)N[C@@H](CCCN=C(N)N)C(=O)N[C@@H](Cc1c[nH]c2ccccc12)C(N)=O [WKSYVRRW]	> 100	64 (≈ 75.5 µg/mL)			100 (≈ 118 µg/mL)
